# Entries after “also recorded” stand apart in the source; their conditions may differ.
# Tests used:
# Type in all cases: in vivo
# [1] = tested on: plant grown from soaked seeds; experiment: Test 1: plant weight (aerial portion) after seed soak
# Protocol: (§1) Seeds were soaked beginning on T=0 days in solutions of either
# (§2) Compound A, imidacloprid, or plain water containing 0.125% (v:v) Tween 20 (check treatment). Compounds were formulated as technical material in water containing 0.125% Tween 20. […] Solution concentrations were 50, 5, 0.5, 0.05 and 0.005 ppm. No evaporation was possible and a significant excess of solution was present to ensure abundant availability of either Compound A or imidacloprid from each solution. On average 20 ml of solution was used to soak groups of seed needed for the seed soaking phase of this test. Seeds were removed from these solutions on T=2 days and planted. Seeds exposed to each unique treatment were germinated as a groups in dedicated shallow plastic cups filled with white sand and containing plain water. Planting of these seeds occurred on T=2 days and the seeds were grown in these shallow cups until T=10 days. Initially 70 ml of water was added to each shallow cup at planting and additional water was added to the cups as needed to keep the sand moist. On T=10 days germinating seedlings were transplanted from the shallow germination cups to individual containers (plastic cups−6 reps per treatment) filled with white sand. Thirty ml of water was used to water the plants following transplanting. After the initial treatment water was added to cups as needed to maintain moisture for plant development. On T=14 days each plant was infested with cotton aphid (CA) Aphis gossypii by transferring a small piece of infested foliage to each test plant. The number of aphids transferred to each plant was uniform based on visual estimation. Plants were rated on T=17 days and T=18 days by counting the number of CA and taking the weight of the each plant. The plant part weighed was the aerial portion of the plant cut off at the surface of the sand. Data were analyzed using analysis of variance with an LSD means separation test (Minitab).
# Treatment number 4 experienced some negative effects associated with excess watering during the phase when these plants were being germinated. […] Only four replicate plants were able to be planted to individual growing cups. […] Prior to conducting an analysis of individual treatment effects (factorial analysis of variance, LSD means separation test P=0.05, Minitab) on weight Treatment 4 (Compound A 0.05 ppm) was removed from the analysis because it was judged to be an outlier based on poor growth as described above. The paired imidacloprid rate (0.05 ppm, No. 9) was also removed to keep the data balanced.
# [2] = tested on: cotton aphid (CA) Aphis gossypii; experiment: Test 1: cotton aphid counts on plants grown from soaked seeds
# Protocol: as §1, §2
# Raw data were not homogeneous and so replicate aphid counts were transformed using a square root count+0.5 transformation.
# [3] = tested on: Corn (Zea mays 'M2T783') seeds; experiment: Test 2: fresh plant weight of corn after seed soak
# Protocol: Technical samples of Compound A and imidacloprid were dissolved in water containing 0.125% Tween 20 (V:V). […] The treatment concentrations for Compound A and imidacloprid were 50, 12.5, 3.125, 0.78 and 0.19 ppm. Solutions were prepared in excess and 40 ml was added to 50 ml centrifuge tubes. Corn (Zea mays ‘M2T783’) seeds were inspected for uniform size and undamaged condition and were placed into each centrifuge tube containing specific compound by rate solutions. A treatment of only 0.125% aqueous Tween 20 was used to soak corn seeds and served as the untreated check. Tubes containing seeds and compound solutions were held at room temperature and after […] the seeds were removed from each solution, rinsed and planted into sand in 7.5 cm^2 pots. Tissue paper was placed into the bottom of each pot to keep sand from leaching from the pot. A total of 8 reps of each compound by rate combination were planted for both corn. Eight replicate pots of compound by rate combination were arranged in a completely randomized design on greenhouse carts. This arrangement of treated seeds in pots was placed into the greenhouse and watered over the top as needed. Each cart was equipped with a plastic rack that served to raise the pots up off the cart surface and away from any standing water. The carts were placed in the center of the greenhouse and were rotated 180 degrees daily. After 13 days the carts were moved to the laboratory and the plants were cut off at the soil surface and weighed. Fresh plant weight data were analyzed for homogeneity of variance using Levene's test and further evaluated using one way analysis of variance of individual treatment combinations (compound by rate) and pooled by compound across rates. Means were separated using Tukey's mean separation test with a family-wise error rate of 0.05. All analyses were conducted using Minitab
# Corn data were homogeneous based on Levene's test for homgeneity of variance (p=0.116 and p=0.69 respectively). AOV of corn data did indicate a difference (F=3.22, P=0.045, df=2) for pooled compound effects but not for individual treatment effects.
structure (smiles),measurement,setting,value
"O=[N+]([O-])NC1=NCCN1Cc1ccc(Cl)nc1 [Imidacloprid, imidacloprid]",Effect on plant weight vs check,"[1]; Test 1, seed soak",increased plant weights compared to the check plants
same,Plant Weight (g) Rep 1,[1]; seed soak 0.005 ppm,2.07 g
same,Plant Weight (g) Rep 2,[1]; seed soak 0.005 ppm,1.59 g
same,Plant Weight (g) Rep 3,[1]; seed soak 0.005 ppm,2.01 g
same,Plant Weight (g) Rep 4,[1]; seed soak 0.005 ppm,1.67 g
same,Plant Weight (g) Rep 5,[1]; seed soak 0.005 ppm,1.86 g
same,Plant Weight (g) Rep 6,[1]; seed soak 0.005 ppm,1.68 g
same,Plant Weight (g) Rep 1,[1]; seed soak 0.05 ppm,1.38 g
same,Plant Weight (g) Rep 2,[1]; seed soak 0.05 ppm,1.37 g
same,Plant Weight (g) Rep 3,[1]; seed soak 0.05 ppm,1.65 g
same,Plant Weight (g) Rep 4,[1]; seed soak 0.05 ppm,1.57 g
same,Plant Weight (g) Rep 5,[1]; seed soak 0.05 ppm,1.72 g
same,Plant Weight (g) Rep 6,[1]; seed soak 0.05 ppm,1.62 g
same,Plant Weight (g) Rep 1,[1]; seed soak 0.5 ppm,1.61 g
same,Plant Weight (g) Rep 2,[1]; seed soak 0.5 ppm,1.82 g
same,Plant Weight (g) Rep 3,[1]; seed soak 0.5 ppm,1.73 g
same,Plant Weight (g) Rep 4,[1]; seed soak 0.5 ppm,2.05 g
same,Plant Weight (g) Rep 5,[1]; seed soak 0.5 ppm,1.66 g
same,Plant Weight (g) Rep 6,[1]; seed soak 0.5 ppm,1.95 g
same,Plant Weight (g) Rep 1,[1]; seed soak 5 ppm,1.64 g
same,Plant Weight (g) Rep 2,[1]; seed soak 5 ppm,1.44 g
same,Plant Weight (g) Rep 3,[1]; seed soak 5 ppm,1.91 g
same,Plant Weight (g) Rep 4,[1]; seed soak 5 ppm,1.44 g
same,Plant Weight (g) Rep 5,[1]; seed soak 5 ppm,1.75 g
same,Plant Weight (g) Rep 6,[1]; seed soak 5 ppm,2.05 g
same,Plant Weight (g) Rep 1,[1]; seed soak 50 ppm,1.47 g
same,Plant Weight (g) Rep 2,[1]; seed soak 50 ppm,2.05 g
same,Plant Weight (g) Rep 3,[1]; seed soak 50 ppm,1.73 g
same,Plant Weight (g) Rep 4,[1]; seed soak 50 ppm,1.84 g
same,Plant Weight (g) Rep 5,[1]; seed soak 50 ppm,2.02 g
same,Plant Weight (g) Rep 6,[1]; seed soak 50 ppm,1.86 g
same,Effect on number of aphids vs check,"[2]; Test 1, seed soak, compound main effect",significantly more aphids in the check treatment; also recorded: reduced the number of aphids on plants
same,Aphids (#/plant) Rep 1,[2]; seed soak 0.005 ppm,45 #/plant
same,Aphids (#/plant) Rep 2,[2]; seed soak 0.005 ppm,125 #/plant
same,Aphids (#/plant) Rep 3,[2]; seed soak 0.005 ppm,55 #/plant
same,Aphids (#/plant) Rep 4,[2]; seed soak 0.005 ppm,75 #/plant
same,Aphids (#/plant) Rep 5,[2]; seed soak 0.005 ppm,80 #/plant
same,Aphids (#/plant) Rep 6,[2]; seed soak 0.005 ppm,35 #/plant
same,Aphids (#/plant) Rep 1,[2]; seed soak 0.05 ppm,95 #/plant
same,Aphids (#/plant) Rep 2,[2]; seed soak 0.05 ppm,60 #/plant
same,Aphids (#/plant) Rep 3,[2]; seed soak 0.05 ppm,65 #/plant
same,Aphids (#/plant) Rep 4,[2]; seed soak 0.05 ppm,95 #/plant
same,Aphids (#/plant) Rep 5,[2]; seed soak 0.05 ppm,75 #/plant
same,Aphids (#/plant) Rep 6,[2]; seed soak 0.05 ppm,50 #/plant
same,Aphids (#/plant) Rep 1,[2]; seed soak 0.5 ppm,25 #/plant
same,Aphids (#/plant) Rep 2,[2]; seed soak 0.5 ppm,44 #/plant
same,Aphids (#/plant) Rep 3,[2]; seed soak 0.5 ppm,43 #/plant
same,Aphids (#/plant) Rep 4,[2]; seed soak 0.5 ppm,70 #/plant
same,Aphids (#/plant) Rep 5,[2]; seed soak 0.5 ppm,80 #/plant
same,Aphids (#/plant) Rep 6,[2]; seed soak 0.5 ppm,30 #/plant
same,Aphids (#/plant) Rep 1,[2]; seed soak 5 ppm,33 #/plant
same,Aphids (#/plant) Rep 2,[2]; seed soak 5 ppm,37 #/plant
same,Aphids (#/plant) Rep 3,[2]; seed soak 5 ppm,17 #/plant
same,Aphids (#/plant) Rep 4,[2]; seed soak 5 ppm,18 #/plant
same,Aphids (#/plant) Rep 5,[2]; seed soak 5 ppm,30 #/plant
same,Aphids (#/plant) Rep 6,[2]; seed soak 5 ppm,34 #/plant
same,Aphids (#/plant) Rep 1,[2]; seed soak 50 ppm,0 #/plant
same,Aphids (#/plant) Rep 2,[2]; seed soak 50 ppm,0 #/plant
same,Aphids (#/plant) Rep 3,[2]; seed soak 50 ppm,4 #/plant
same,Aphids (#/plant) Rep 4,[2]; seed soak 50 ppm,7 #/plant
same,Aphids (#/plant) Rep 5,[2]; seed soak 50 ppm,4 #/plant
same,Aphids (#/plant) Rep 6,[2]; seed soak 50 ppm,1 #/plant
same,Plant Weight % increase,"[3]; corn seedling weight vs untreated Tween 20 water check, pooled across rates",24.8%
same,Plant Weight (g) Mean,"[3]; corn, seed soak, pooled across rates 50-0.19 ppm, fresh weight after 13 days",2.841 g
same,Tukey's pair-wise comparison of corn plant weight with untreated Tween 20 water check,"[3]; pooled compound effects, family-wise error rate 0.05",not significantly different

# Source: patent US20120135866A1, “INCREASING PLANT VIGOR” (DOW AGROSCIENCES LLC, priority 2007, published 2012)
